Data on eight compounds can be found in ChEMBL document CHEMBL1125295, “Synthesis and some pharmacological properties of potent and selective antagonists of the vasopressor (V1-receptor) response to arginine-vasopressin” (J Med Chem, 1992).

In test [1] the target is Vasopressin V2 receptor (Rattus norvegicus) (UniProt Q00788). Kind of test: Dose that reduces urine flow in water-loaded rats. The test is classed as functional.
Test [2] deals with Vasopressin V1 receptor (Rattus norvegicus) (UniProt P48974+P30560). Kind of test: Dose that reduces blood pressure response in rats. The class given is functional.
Chain of Vasopressin V1 receptor (Rattus norvegicus) (P30560 whole entry, looked up): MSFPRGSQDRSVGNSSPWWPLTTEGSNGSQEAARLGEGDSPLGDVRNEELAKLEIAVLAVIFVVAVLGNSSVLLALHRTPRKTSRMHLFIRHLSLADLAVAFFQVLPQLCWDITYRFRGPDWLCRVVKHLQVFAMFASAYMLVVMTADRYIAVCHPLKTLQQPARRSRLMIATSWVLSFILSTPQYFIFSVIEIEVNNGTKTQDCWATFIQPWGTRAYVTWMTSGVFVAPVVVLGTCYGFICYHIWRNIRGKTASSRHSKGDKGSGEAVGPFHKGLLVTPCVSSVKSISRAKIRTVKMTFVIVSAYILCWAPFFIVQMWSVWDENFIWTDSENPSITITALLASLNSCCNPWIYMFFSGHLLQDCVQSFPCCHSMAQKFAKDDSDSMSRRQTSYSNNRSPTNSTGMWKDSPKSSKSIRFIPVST
Chain of Vasopressin V1 receptor (Rattus norvegicus) (P48974 whole entry, looked up): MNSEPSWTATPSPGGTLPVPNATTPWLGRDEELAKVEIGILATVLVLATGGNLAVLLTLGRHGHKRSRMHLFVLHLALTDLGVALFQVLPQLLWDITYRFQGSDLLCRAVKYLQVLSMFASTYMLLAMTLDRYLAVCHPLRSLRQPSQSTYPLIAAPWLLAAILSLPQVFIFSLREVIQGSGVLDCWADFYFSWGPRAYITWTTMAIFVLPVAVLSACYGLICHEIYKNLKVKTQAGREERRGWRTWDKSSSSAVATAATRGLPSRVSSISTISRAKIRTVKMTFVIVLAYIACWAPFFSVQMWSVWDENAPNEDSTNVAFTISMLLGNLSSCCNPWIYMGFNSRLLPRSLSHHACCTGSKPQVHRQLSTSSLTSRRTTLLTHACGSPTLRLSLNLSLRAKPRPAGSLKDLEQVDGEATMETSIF
Test [3] is described as follows: Ratio of antidiuretic V2 effective dose to that of vasopressin V1 effective dose. The class given is functional, Urine.
Test [4] deals with Vasopressin V2 receptor (Rattus norvegicus) (UniProt Q00788). The test can be described thus: Antidiuretic activity in water-loaded rats.

*1 amine or outer side, *2 acyl side, *3 side chain or, on linkers, in order; H or OH if unused. Where a SMILES comes first, the peptide text is derived from it. Bridges are numbered along the chain shown (N, C = ends). [ ]: non-standard residue; d: D form. NMeY = CN[C@@H](Cc1ccc(O)cc1)C(=O)O; X1 = O=C(CC1(S[*:2])CCCCC1)[*:1]

Chain of Vasopressin V2 receptor (Rattus norvegicus) (Q00788 whole entry): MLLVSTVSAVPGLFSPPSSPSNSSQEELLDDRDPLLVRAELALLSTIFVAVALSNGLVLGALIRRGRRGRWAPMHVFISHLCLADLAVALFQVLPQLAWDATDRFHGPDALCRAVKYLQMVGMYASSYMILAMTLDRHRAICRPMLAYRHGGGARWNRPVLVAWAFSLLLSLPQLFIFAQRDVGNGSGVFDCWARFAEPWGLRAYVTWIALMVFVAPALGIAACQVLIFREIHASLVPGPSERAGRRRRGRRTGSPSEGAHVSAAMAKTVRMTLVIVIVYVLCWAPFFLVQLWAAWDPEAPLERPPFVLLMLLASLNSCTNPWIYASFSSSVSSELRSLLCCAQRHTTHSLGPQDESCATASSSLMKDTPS

For `CN1C(=O)CC2(CCCCC2)SSC[C@H](C(=O)N2CCC[C@H]2C(=O)N[C@@H](CCCN=C(N)N)C(=O)N[C@@H](CCCN=C(N)N)C(N)=O)NC(=O)[C@@H](CC(N)=O)NC(=O)[C@H](CCC(N)=O)NC(=O)[C@@H](Cc2ccccc2)NC(=O)[C@@H]1Cc1ccc(O)cc1`, the Effective dose in test [1] is 18 nM/kg; in test [2], 0.12 nM/kg. For the same compound, the Ratio in test [3] is reported as around 150.

In the case of `CC(C)[C@H](NC(=O)[C@H](CCCN=C(N)N)NC(=O)[C@@H]1CCCN1C(=O)[C@H]1CSSC(C)(C)CC(=O)N(C)[C@@H](Cc2ccc(O)cc2)C(=O)N[C@H](Cc2ccccc2)C(=O)N[C@@H](CCC(N)=O)C(=O)N[C@H](CC(N)=O)C(=O)N1)C(N)=O`, the Antidiuretic activity in test [4] stood at 0.039 units/mg. This compound gave an Effective dose in test [2] of 0.6 nM/kg.

Turning to `CN1C(=O)CC(C)(C)SSC[C@H](C(=O)N2CCC[C@H]2C(=O)N[C@@H](CCCN=C(N)N)C(=O)N[C@@H](CCCN=C(N)N)C(N)=O)NC(=O)[C@@H](CC(N)=O)NC(=O)[C@H](CCC(N)=O)NC(=O)[C@@H](Cc2ccccc2)NC(=O)[C@@H]1Cc1ccc(O)cc1`, the Antidiuretic activity in test [4] was 0.083 units/mg.

For `CN1C(=O)CC(C)(C)SSC[C@H](C(=O)N2CCC[C@H]2C(=O)N[C@@H](CCCN=C(N)N)C(=O)N[C@@H](Cc2ccc(O)cc2)C(N)=O)NC(=O)[C@@H](CC(N)=O)NC(=O)[C@H](CCC(N)=O)NC(=O)[C@@H](Cc2ccccc2)NC(=O)[C@@H]1Cc1ccc(O)cc1`, the Antidiuretic activity in test [4] came out at 0.029 units/mg. Also, in test [2], the Effective dose came out at 0.38 nM/kg.

Turning to `CN1C(=O)CC2(CCCCC2)SSC[C@H](C(=O)N2CCC[C@H]2C(=O)N[C@@H](CCCN=C(N)N)C(=O)NCC(=O)NCCN)NC(=O)[C@@H](CC(N)=O)NC(=O)[C@H](CCC(N)=O)NC(=O)[C@@H](Cc2ccccc2)NC(=O)[C@@H]1Cc1ccc(O)cc1`, the Effective dose in test [1] is 16 nM/kg; in test [2] it was 0.27 nM/kg.

For `C[C@H](NC(=O)[C@H](CCCN=C(N)N)NC(=O)[C@@H]1CCCN1C(=O)[C@H]1CSSC2(CCCCC2)CC(=O)N(C)[C@@H](Cc2ccc(O)cc2)C(=O)N[C@H](Cc2ccccc2)C(=O)N[C@@H](CCC(N)=O)C(=O)N[C@H](CC(N)=O)C(=O)N1)C(N)=O`, the Effective dose was determined as 77 nM/kg in test [1] and 0.13 nM/kg in test [2].

For `C[C@H](O)[C@H](NC(=O)[C@H](CCCN=C(N)N)NC(=O)[C@@H]1CCCN1C(=O)[C@H]1CSSC2(CCCCC2)CC(=O)N(C)[C@@H](Cc2ccc(O)cc2)C(=O)N[C@H](Cc2ccccc2)C(=O)N[C@@H](CCC(N)=O)C(=O)N[C@H](CC(N)=O)C(=O)N1)C(N)=O`, the Effective dose came to 45 nM/kg in test [1] and 0.22 nM/kg in test [2].

In turn, `CN1C(=O)CC2(CCCCC2)SSC[C@H](C(=O)N2CCC[C@H]2C(=O)N[C@@H](CCCN=C(N)N)C(=O)NCC(N)=O)NC(=O)[C@H](CC(N)=O)NC(=O)[C@H](CCC(N)=O)NC(=O)[C@H](Cc2ccccc2)NC(=O)[C@@H]1Cc1ccc(O)cc1` ([NMeY]FQN[dC]PRG-NH2; linker N-5 via X1) gave an Antidiuretic activity in test [4] of 0.31 units/mg. The Effective dose in test [2] was found to be 0.16 nM/kg.
